In the Deep4Chem optical property database:
Values belong to the compound of their own block, whether it stands above or below them.

Assay: solvent given as SMILES

SMILES: CCCCc1cc(CCCC)c2ccc3c(CCCC)cc(CCCC)c4ccc1c2c43
emission maximum (in CCCCCC): 388 nm
emission maximum (in CO): 388 nm
emission maximum (in ClCCl): 389 nm

SMILES: Cc1cn(CCCn2cc(C)c(=O)[nH]c2=O)c(=O)nc1-n1cncn1
emission maximum (in O): 382 nm

SMILES: Cc1cc(C)c(B(c2c(C)cc(C)cc2C)c2c(C)cc(-n3c4ccc(N(c5ccccc5)c5ccccc5)cc4c4cc(N(c5ccccc5)c5ccccc5)ccc43)cc2C)c(C)c1
emission maximum (in Cc1ccccc1): 495 nm
emission maximum (in O=P(c1ccccc1)(c1ccccc1)c1ccccc1Oc1ccccc1P(=O)(c1ccccc1)c1ccccc1): 487 nm

SMILES: CCCCN1/C(=C\c2c(-c3ccc(N(C)C)cc3)c(=O)c2=O)C=Cc2ccccc21
emission maximum (in C1CCCCC1): 428 nm
emission maximum (in Cc1ccccc1): 435 nm
emission maximum (in ClCCl): 585 nm

SMILES: c1ccc(Cc2c3ccc(=[N+]4CCCCC4)cc-3oc3cc(N4CCCCC4)ccc23)cc1
emission maximum (in ClCCl): 582 nm

SMILES: CCc1ccc(-n2c3ccccc3c3cc4c(cc32)c2ccccc2n4-c2ccc(CC)s2)s1
emission maximum (in ClC(Cl)Cl): 405 nm

SMILES: CCOC(=O)c1c(C=Cc2ccccc2)oc(NC2CCCCC2)c1C(=O)OCC
emission maximum (in CC#N): 460 nm

SMILES: F[B-]1(F)n2c(-c3ccccc3)cnc2-c2cccc[n+]21
emission maximum (in C1CCCCC1): 486 nm
emission maximum (in C1CCOC1): 509 nm
emission maximum (in C1COCCO1): 509 nm
emission maximum (in CC#N): 514 nm
emission maximum (in CCCCCC): 487 nm
emission maximum (in CO): 503 nm
emission maximum (in ClC(Cl)Cl): 501 nm

SMILES: N#Cc1c(N2CCCCC2)cc(-c2cccc3ccccc23)c2c1CCc1ccccc1-2
emission maximum (in C1CCOC1): 465 nm

SMILES: CN(C)c1ccc(/C=C/c2cc[n+](Cc3cc(C[n+]4ccc(/C=C/c5ccc(N(C)C)cc5)cc4)cc(C[n+]4ccc(/C=C/c5ccc(N(C)C)cc5)cc4)c3)cc2)cc1
emission maximum (in C1COCCO1): 580 nm
emission maximum (in CC(C)O): 607 nm
emission maximum (in CCCCCCCCO): 595 nm
emission maximum (in CCCCO): 608 nm
emission maximum (in CCCO): 611 nm
emission maximum (in CCO): 613 nm
emission maximum (in CO): 618 nm
emission maximum (in CS(C)=O): 627 nm
emission maximum (in ClC(Cl)Cl): 580 nm
emission maximum (in ClCCl): 600 nm

SMILES: C[Si](C)(C)c1ccc(-c2ccc(-c3ccc(-c4ccc(-c5ccc([Si](C)(C)C)s5)cc4)c4nsnc34)cc2)s1
emission maximum (in C1CCOC1): 540 nm

SMILES: CCOC(=O)COc1ccc(/C=C/C2=C3c4ccccc4C(c4[nH]c(C)cc4C)=[N+]3[B-](F)(F)n3c(/C=C/c4ccc(OCC(=O)OCC)cc4)cc(C)c32)cc1
emission maximum (in C1CCOC1): 730 nm
emission maximum (in CC#N): 727 nm
emission maximum (in CCCCCC): 731 nm
emission maximum (in CO): 726 nm
emission maximum (in Cc1ccccc1): 735 nm
emission maximum (in ClCCl): 733 nm

SMILES: CCCCCCc1ccc(/C=C/c2ccc(CCCCCC)s2)s1
emission maximum (in Cc1ccccc1): 416 nm

SMILES: C[Si](C)(C)c1ccc(-c2ccc(-c3ccc(-c4ccc(-c5ccc([Si](C)(C)C)cc5)cc4)c4nsnc34)cc2)cc1
emission maximum (in C1CCOC1): 516 nm

SMILES: O=S1(=O)C2=C(c3ccccc31)C1(c3ccccc32)c2ccccc2-c2sc3ccccc3c21 (stereo not given)
emission maximum (in ClCCl): 459 nm

SMILES: CN(C)c1ccc(-c2c(/C=C3/C=Cc4ccccc4N3C)c(=O)c2=O)cc1
emission maximum (in C1CCCCC1): 427 nm
emission maximum (in Cc1ccccc1): 435 nm
emission maximum (in ClCCl): 588 nm

SMILES: COC(=O)C[C@H](Cc1c[nH]c2ccccc12)NC(=O)[C@H](CC(=O)N[C@@H](CC1=CCc2ccccc21)C(=O)OC)NC(=O)OC(C)(C)C
emission maximum (in CC#N): 332 nm
emission maximum (in CCOC(C)=O): 326 nm
emission maximum (in CO): 337 nm

SMILES: COc1cc(C(=O)O)cc(OC)c1O
emission maximum (in O): 333 nm

SMILES: CCCCC1(c2ccccc2)Nc2c(-c3ccc(N(C)c4ccccc4)cc3)ccc(-c3ccc(N(C)c4ccccc4)cc3)c2N=C1c1ccccc1 (stereo not given)
emission maximum (in C1CCOC1): 580 nm
emission maximum (in CC#N): 602 nm
emission maximum (in CCCCCC): 553 nm
emission maximum (in CN(C)C=O): 603 nm
emission maximum (in Cc1ccccc1): 573 nm
emission maximum (in ClC(Cl)Cl): 589 nm

SMILES: CC(C)c1cccc(C(C)C)c1N1C(=O)c2cccc3c(Oc4ccc(C(C)(C)C)cc4)ccc(c23)C1=O
emission maximum (in ClCCl): 434 nm

SMILES: C(=C(c1ccccc1)c1ccccc1)c1ccc(-c2cc(-c3ccc(C=C(c4ccccc4)c4ccccc4)cc3)c(-c3ccc(C=C(c4ccccc4)c4ccccc4)cc3)cc2-c2ccc(C=C(c3ccccc3)c3ccccc3)cc2)cc1
emission maximum (in C1CCOC1): 440 nm

SMILES: Cc1cc(C)c(B(c2ccccc2N(c2ccccc2)c2ccccc2)c2c(C)cc(C)cc2C)c(C)c1
emission maximum (in CC(C)=O): 532.95 nm
emission maximum (in Cc1ccccc1): 498 nm
emission maximum (in ClCCl): 518.5 nm

SMILES: COc1ccc(/C=C/c2cc(/C=C/c3ccc(OC)cc3)nc(/C=C/c3ccc(N(c4ccccc4)c4ccccc4)cc3)n2)cc1
emission maximum (in C1CCOC1): 511 nm
emission maximum (in CC#N): 627 nm
emission maximum (in CC(C)=O): 572 nm
emission maximum (in CCCCCCC): 439 nm
emission maximum (in CS(C)=O): 622 nm
emission maximum (in Cc1ccccc1): 466 nm
emission maximum (in ClCCl): 558 nm

SMILES: CN(C)c1ccc(/C=C2\CCCC2=O)cc1
emission maximum (in CC#N): 488 nm
emission maximum (in CC(C)=O): 474 nm
emission maximum (in CC(C)O): 472 nm
emission maximum (in CCCCCC): 405 nm
emission maximum (in CCCCO): 479 nm
emission maximum (in CCCO): 479 nm
emission maximum (in CCO): 480 nm
emission maximum (in CCOC(C)=O): 448 nm
emission maximum (in CCOCC): 420 nm
emission maximum (in CN(C)C=O): 504 nm
emission maximum (in CO): 488 nm
emission maximum (in CS(C)=O): 493 nm
emission maximum (in Cc1ccccc1): 424 nm
emission maximum (in ClC(Cl)(Cl)Cl): 431 nm
emission maximum (in ClC(Cl)Cl): 469 nm
emission maximum (in ClCCl): 472 nm
emission maximum (in S=C=S): 422 nm
emission maximum (in c1ccccc1): 435 nm
emission maximum (in c1ccncc1): 480 nm

SMILES: CCN(CC)c1ccc(-c2ccc(-c3nc(N4CCOCC4)c4ccccc4n3)s2)cc1
emission maximum (in CC#N): 544 nm
emission maximum (in Cc1ccccc1): 476 nm

SMILES: CCC1(CC)c2cc(N(c3ccccc3)c3ccccc3)ccc2-c2c1c1c(c3c2C(CC)(CC)c2cc(N(c4ccccc4)c4ccccc4)ccc2-3)C(CC)(CC)c2cc(N(c3ccccc3)c3ccccc3)ccc2-1
emission maximum (in C1CCOC1): 390 nm
emission maximum (in CC#N): 404 nm
emission maximum (in CC(C)=O): 395 nm
emission maximum (in CCCCCC): 382 nm
emission maximum (in Cc1ccccc1): 386 nm

SMILES: N#Cc1c(-n2c3ccc(-c4ccccc4)cc3c3cc(-c4ccccc4)ccc32)c(-n2c3ccccc3c3ccccc32)c(-n2c3ccc(-c4ccccc4)cc3c3cc(-c4ccccc4)ccc32)c(-n2c3ccccc3c3ccccc32)c1-n1c2ccc(-c3ccccc3)cc2c2cc(-c3ccccc3)ccc21
emission maximum (in Cc1ccccc1): 492 nm

SMILES: CC1=[N+]2C(=C(c3ccc(C(=C(c4ccccc4)c4ccccc4)c4ccccc4)cc3)c3ccc(/C=C/c4ccc(C(=C(c5ccccc5)c5ccccc5)c5ccccc5)cc4)n3[B-]2(F)F)C=C1
emission maximum (in C1CCOC1): 612 nm

Results, then the compound that gave them:

emission maximum (in ClCCl): 504 nm
SMILES: Cc1ccc2nc3cc4c(cc3c(-c3ccccc3)c2c1)[Si](C)(C)O[Si]4(C)C

emission maximum (in CCO): 510 nm
SMILES: CN(C)c1ccc(-c2ccc(C#N)s2)s1

emission maximum (in C1CCCCC1): 422 nm
emission maximum (in CS(C)=O): 599 nm
emission maximum (in ClC(Cl)Cl): 510 nm
SMILES: CN(C)c1ccc(-c2cc(-c3ccc4ccccc4c3)nc(-c3ccccc3)n2)cc1

emission maximum (in ClC(Cl)Cl): 634 nm
SMILES: N#CC(C#N)=Cc1ccc(-c2ccc(N(c3ccccc3)c3ccccc3)cc2)cc1

emission maximum (in CCCCCCC): 410 nm
SMILES: c1cc2c3c(cccc3c1)-c1cc3c(ccc4ccccc43)cc1-2

emission maximum (in C1CCCCC1): 526 nm
emission maximum (in ClC(Cl)Cl): 683 nm
SMILES: CN(C)c1ccc2nc(-c3ccc(C=C(C#N)C#N)cc3)sc2c1

emission maximum (in C1COCCO1): 478 nm
SMILES: COC(=O)c1ccc(/C=C2\N=C(c3ccc(OC)c(OC)c3)NC2=O)cc1

emission maximum (in ClC(Cl)Cl): 518 nm
SMILES: O=Cc1ccc(C#CC(C#Cc2ccc(C=O)o2)=Cc2ccc(C=C(C#Cc3ccc(C=O)o3)C#Cc3ccc(C=O)o3)cc2)o1

emission maximum (in C1CCOC1): 419 nm
emission maximum (in CN(C)C=O): 423 nm
SMILES: O=C(O)c1ccc2cc3cc(C(=O)O)ccc3cc2c1

emission maximum (in ClC(Cl)Cl): 823 nm
SMILES: CN(C)c1ccc(C2=[N+]3C(=Nc4c(-c5ccccc5)cc(-c5ccc(N(C)C)cc5)n4[B-]3(F)F)C(c3ccccc3)=C2)cc1

emission maximum (in ClCCl): 446 nm
SMILES: CC(=O)c1c(N[C@H](C(=O)O)C(C)C)c2ccc(N(C)C)cc2oc1=O

emission maximum (in C1CCCCC1): 540 nm
emission maximum (in CC#N): 546 nm
emission maximum (in CCO): 547 nm
emission maximum (in CCOC(C)=O): 543 nm
emission maximum (in CO): 546.5 nm
emission maximum (in OCC(F)(F)F): 538.5 nm
SMILES: Cc1ccc(C2=C3C=C(I)C=[N+]3[B-](F)(F)n3cccc32)cc1

emission maximum (in CC#N): 474 nm
emission maximum (in CCCCCC): 376 nm
emission maximum (in CO): 377 nm
emission maximum (in ClC(Cl)Cl): 452 nm
SMILES: c1ccc2cc3cc(-c4cc(-c5nccs5)nc(-c5nccs5)c4)ccc3cc2c1

emission maximum (in ClCCl): 411 nm
SMILES: Clc1ccc(/C=C/c2ccncn2)cc1

emission maximum (in C1CCOC1): 585 nm
emission maximum (in CC#N): 656 nm
emission maximum (in CCCCCC): 506 nm
SMILES: CC1=N/C(=C\c2cccc(N(C)C)c2)C(=O)N1CCO

emission maximum (in CCO): 632 nm
emission maximum (in ClCCl): 612 nm
emission maximum (in O): 652 nm
SMILES: N#CC(C#N)=Cc1ccc(-c2ccc(O)c(-c3nc4ccccc4s3)c2)o1
